Assay [1] deals with Bcl-2 WT (Homo sapiens, UniProt P10415). Description: Bcl-2 WT inhibition, fluorescence polarization (Flu-BIM tracer) binding assay. (In general: Polarisation of emitted light reports the rotation of a fluorescent probe.)
Assay [2] relates to MV-4-11 cells. Description: CCK-8 cell viability assay in MV-4-11 cells. The format is cell-based. Particulars: Homo sapiens, MV4-11, 72 h, 10% FBS, 3 days. On the procedure:
MV-4-11 cells were obtained from University of Michigan. Cells were maintained in the RPMI-1640 medium with 10% FBS and 1% P/S at 37° C. and an atmosphere of 5% CO2.
• The effect of representative Compounds of the Disclosure on cell viability was determined using Cell Counting Kit-8 (CCK-8) assay (Shanghai Life iLab Biotech) according to the manufacturer's instructions. Each tested compound was serially diluted in culture medium, and 100 μL of the compound dilution was added to the corresponding well of the cell plate. 100 μL of MV-4-11 cell suspension (20000 cells/well) in culture medium were seeded into 96-well plates. The cells were incubated at 37° C. in an atmosphere of 5% CO2 for 3 days. At the end of 3 days, 20 μL of CCK-8 solution was added to each well of the plate and incubated for 1-4 hours. The plates were read at 450 nm on the Biotek plate reader. The readings were normalized to the vehicle cells, and the IC50 was calculated using GraphPad Prism 8 software.

Assay [3] relates to RS4; 11Bcl-2-G101V cells. Description: CellTiter-Glo (CTG) cell viability assay in RS4;11-Bcl-2-G101V cells. Format: cell-based. Particulars: 72 h, 10% FBS, 3 days. On the procedure: RS4; 11Bcl-2-G101V, RS4; 11Bcl-2-D103E, RS4; 11Bcl-2-V156D and RS4; 11Bcl-2-G101V-D103E cells were obtained from Cobioer Biosciences. Cells were maintained in the RPMI-1640 medium with 10% FBS, 1% P/S and puromycin (1 μg/mL) at 37° C. and an atmosphere of 5% CO2.
• The effect of representative Compounds of the Disclosure on cell viability was determined using CellTiter-Glo® (CTG) luminescent cell viability assay (Promega, USA) according to the manufacturer's instructions. 95 μL of cell suspension (10000 cells/well) in culture medium were seeded into 96-well plates and cultured 4 hours. Each tested compound was serially diluted in blank culture medium, and 5 μL of the compound dilution was added to the corresponding well of the cell plate. After the addition of the tested compound, the cells were incubated at 37° C. in an atmosphere of 5% CO2 for 3 days. At the end of 3 days, 30 μL of CTG solution was added to each well of the plate and mix contents for 2 minutes on an orbital shaker. Allow the plate to incubate at room temperature for 15 mins to stabilize signal and record RLU on the Biotek plate reader. The readings were normalized to the vehicle cells, and the IC50 was calculated using GraphPad Prism 8 software.

Where [4] appears, read: FP, 20 nM Bcl2, 5 nM Flu-BIM, 1 h incubation, read-out: Bcl-2 w.t. (FP).

Where two headings read alike, the source gives them in different places.

Bcl-2 WT, sequence (P10415 whole entry): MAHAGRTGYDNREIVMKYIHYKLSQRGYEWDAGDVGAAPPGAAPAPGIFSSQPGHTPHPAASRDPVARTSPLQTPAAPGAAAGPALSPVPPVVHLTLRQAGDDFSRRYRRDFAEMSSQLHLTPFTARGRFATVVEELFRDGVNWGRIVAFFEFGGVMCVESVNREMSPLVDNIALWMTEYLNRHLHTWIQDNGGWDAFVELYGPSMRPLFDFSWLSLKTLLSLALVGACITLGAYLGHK

As for `CC1(C)CCC(CN2CCN(c3ccc(C(=O)NS(=O)(=O)c4ccc(NC[C@H]5COCCO5)c([N+](=O)[O-])c4)c(Oc4cnc5[nH]ccc5c4)c3)CC2)=C(c2cc(C(=O)Nc3ccccc3)cs2)C1` [Example 17, (S)-5-(2-((4-(4-(((4-(((1,4-dioxan-2-yl)methyl)amino)-3-nitrophenyl)sulfonyl)carbamoyl)-3-((1H-pyrrolo[2,3-b]pyridin-5-yl)oxy)phenyl)piperazin-1-yl)methyl)-5,5-dimethylcyclohex-1-en-1-yl)-N-phenylthiophene-3-carboxamide], the IC50 in assay [1] was 30.9 nM; in assay [2] it was 262 nM; in assay [3] it was 4250 nM.
On to `CC1(C)CCC(CN2CCN(c3ccc(C(=O)NS(=O)(=O)c4ccc(NC[C@H]5COCCO5)c([N+](=O)[O-])c4)c(Oc4cnc5[nH]ccc5c4)c3)CC2)=C(c2cc(NC(=O)c3ccccc3)cs2)C1` [Example 18, (S)—N-((4-(((1,4-dioxan-2-yl)methyl)amino)-3-nitrophenyl)sulfonyl)-2-((1H-pyrrolo[2,3-b]pyridin-5-yl)oxy)-4-(4-((2-(4-benzamidothiophen-2-yl)-4,4-dimethylcyclohex-1-en-1-yl)methyl)piperazin-1-yl)benzamide], for which the IC50 was found to be 37.5 nM in assay [1] (setting [4]), 323 nM in assay [2] and 2040 nM in assay [3].
In the case of `CC1(C)CCC(CN2CCN(c3ccc(C(=O)NS(=O)(=O)c4ccc(NC[C@H]5COCCO5)c([N+](=O)[O-])c4)c(Oc4cnc5[nH]ccc5c4)c3)CC2)=C(c2cc(Nc3ncccn3)cs2)C1` [Example 19, (S)—N-((4-(((1,4-dioxan-2-yl)methyl)amino)-3-nitrophenyl)sulfonyl)-2-((1H-pyrrolo[2,3-b]pyridin-5-yl)oxy)-4-(4-((4,4-dimethyl-2-(4-(pyrimidin-2-ylamino)thiophen-2-yl)cyclohex-1-en-1-yl)methyl)piperazin-1-yl)benzamide], the IC50 in assay [1] (setting [4]) turned out to be 24.6 nM; in assay [2], 138 nM; in assay [3] it was 980 nM.
On to `CC1(C)CCC(CN2CCN(c3ccc(C(=O)NS(=O)(=O)c4ccc(NCC5CCOCC5)c([N+](=O)[O-])c4)c(Oc4cnc5[nH]ccc5c4)c3)CC2)=C(c2csc(CN3CCOCC3)c2)C1` [Example 21, 2-((1H-pyrrolo[2,3-b]pyridin-5-yl)oxy)-4-(4-((4,4-dimethyl-2-(5-(morpholinomethyl)thiophen-3-yl)cyclohex-1-en-1-yl)methyl)piperazin-1-yl)-N-((3-nitro-4-(((tetrahydro-2H-pyran-4-yl)methyl)amino)phenyl)sulfonyl)benzamide], for which the IC50 was 27.1 nM in assay [1] (setting [4]), 323 nM in assay [2] and 3790 nM in assay [3].
Consider `CC1(C)CCC(CN2CCN(c3ccc(C(=O)NS(=O)(=O)c4ccc(NC[C@H]5COCCO5)c([N+](=O)[O-])c4)c(Oc4cnc5[nH]ccc5c4)c3)CC2)=C(c2cc(CN3CCOCC3)cs2)C1` [Example 22, (S)—N-((4-(((1,4-dioxan-2-yl)methyl)amino)-3-nitrophenyl)sulfonyl)-2-((1H-pyrrolo[2,3-b]pyridin-5-yl)oxy)-4-(4-((4,4-dimethyl-2-(4-(morpholinomethyl)thiophen-2-yl)cyclohex-1-en-1-yl)methyl)piperazin-1-yl)benzamide], for which the IC50 in assay [1] (setting [4]) is 25.4 nM; in assay [2], 83 nM; in assay [3], 440 nM.
As to `CC1(C)CCC(CN2CCN(c3ccc(C(=O)NS(=O)(=O)c4ccc(NC[C@H]5CC[C@@](C)(O)CC5)c([N+](=O)[O-])c4)c(Oc4cnc5[nH]ccc5c4)c3)CC2)=C(c2cc(CN3CCOCC3)cs2)C1` [Example 23, 2-((1H-pyrrolo[2,3-b]pyridin-5-yl)oxy)-4-(4-((4,4-dimethyl-2-(4-(morpholinomethyl)thiophen-2-yl)cyclohex-1-en-1-yl)methyl)piperazin-1-yl)-N-((4-((((1s,4s)-4-hydroxy-4-methylcyclohexyl)methyl)amino)-3-nitrophenyl)sulfonyl)benzamide], the IC50 was 15.7 nM in assay [1] (setting [4]), 180 nM in assay [2] and 930 nM in assay [3].
On to `CC1(C)CCC(CN2CCN(c3ccc(C(=O)NS(=O)(=O)c4ccc(NC[C@H]5CC[C@](C)(O)CC5)c([N+](=O)[O-])c4)c(Oc4cnc5[nH]ccc5c4)c3)CC2)=C(c2cc(CN3CCOCC3)cs2)C1` [Example 24, 2-((1H-pyrrolo[2,3-b]pyridin-5-yl)oxy)-4-(4-((4,4-dimethyl-2-(4-(morpholinomethyl)thiophen-2-yl)cyclohex-1-en-1-yl)methyl)piperazin-1-yl)-N-((4-((((1r,4r)-4-hydroxy-4-methylcyclohexyl)methyl)amino)-3-nitrophenyl)sulfonyl)benzamide], for which the IC50 in assay [1] (setting [4]) is 15.9 nM; in assay [2], 40 nM; in assay [3] it was 340 nM.
In the case of `CC1(C)CCC(CN2CCN(c3ccc(C(=O)NS(=O)(=O)c4ccc(NCC5CCOCC5)c([N+](=O)[O-])c4)c(Oc4cnc5[nH]ccc5c4)c3)CC2)=C(c2ccsc2CN2CCOCC2)C1` [Example 25, 2-((1H-pyrrolo[2,3-b]pyridin-5-yl)oxy)-4-(4-((4,4-dimethyl-2-(2-(morpholinomethyl)thiophen-3-yl)cyclohex-1-en-1-yl)methyl)piperazin-1-yl)-N-((3-nitro-4-(((tetrahydro-2H-pyran-4-yl)methyl)amino)phenyl)sulfonyl)benzamide], the IC50 in assay [1] (setting [4]) is 25.4 nM; in assay [2], 225 nM; in assay [3], 1810 nM.
For the compound `CC1(C)CCC(CN2CCN(c3ccc(C(=O)NS(=O)(=O)c4ccc(NCC5CCOCC5)c([N+](=O)[O-])c4)c(Oc4cnc5[nH]ccc5c4)c3)CC2)=C(c2ccc(CN3CCOCC3)s2)C1` [Example 26, 2-((1H-pyrrolo[2,3-b]pyridin-5-yl)oxy)-4-(4-((4,4-dimethyl-2-(5-(morpholinomethyl)thiophen-2-yl)cyclohex-1-en-1-yl)methyl)piperazin-1-yl)-N-((3-nitro-4-(((tetrahydro-2H-pyran-4-yl)methyl)amino)phenyl)sulfonyl)benzamide], the values for the IC50 in assay [1] (setting [4]), in assay [2] and in assay [3] were 26.4 nM, 246 nM and 2590 nM, respectively.
On to `CC1(C)CCC(CN2CCN(c3ccc(C(=O)NS(=O)(=O)c4ccc(NC[C@H]5COCCO5)c([N+](=O)[O-])c4)c(Oc4cnc5[nH]ccc5c4)c3)CC2)=C(c2cc(CN3CCC(N4CCOCC4)CC3)cs2)C1` [Example 28, (S)—N-((4-(((1,4-dioxan-2-yl)methyl)amino)-3-nitrophenyl)sulfonyl)-2-((1H-pyrrolo[2,3-b]pyridin-5-yl)oxy)-4-(4-((4,4-dimethyl-2-(4-((4-morpholinopiperidin-1-yl)methyl)thiophen-2-yl)cyclohex-1-en-1-yl)methyl)piperazin-1-yl)benzamide], for which the IC50 was 20.7 nM in assay [1] (setting [4]), 276 nM in assay [2] and 1210 nM in assay [3].
The corresponding values for `C[C@@H]1CN(Cc2csc(C3=C(CN4CCN(c5ccc(C(=O)NS(=O)(=O)c6ccc(NC[C@H]7COCCO7)c([N+](=O)[O-])c6)c(Oc6cnc7[nH]ccc7c6)c5)CC4)CCC(C)(C)C3)c2)C[C@H](C)N1C` [Example 29, N-((4-((((S)-1,4-dioxan-2-yl)methyl)amino)-3-nitrophenyl)sulfonyl)-2-((1H-pyrrolo[2,3-b]pyridin-5-yl)oxy)-4-(4-((4,4-dimethyl-2-(4-(((3S,5R)-3,4,5-trimethylpiperazin-1-yl)methyl)thiophen-2-yl)cyclohex-1-en-1-yl)methyl)piperazin-1-yl)benzamide] are 26.7 nM, 422 nM and 750 nM.
